Assay results taken from ChEMBL document CHEMBL1155476, “A vHTS approach for the identification of beta-adrenoceptor ligands” (Bioorg Med Chem Lett, 2010).
Converted amounts (≈) assume the structure as drawn.

Tests used:
[1] = target: T1, Beta-3 adrenergic receptor (Homo sapiens, UniProt P13945); assay: biochemical
Description: Displacement of [125I]cyanopindolol from human adrenergic beta3 receptor expressed in CHOK1 cells

[2] = target: T2, Beta-2 adrenergic receptor (Homo sapiens, UniProt P07550); assay: biochemical
Description: Displacement of [125I]cyanopindolol from human adrenergic beta2 receptor expressed in CHOK1 cells

[3] = target: T3, Beta-1 adrenergic receptor (Homo sapiens, UniProt P08588); assay: Displacement of [125I]cyanopindolol from human adrenergic beta-1 receptor expressed in CHOK1 cells; format: cell-based, CHO-K1
Target sequence in this assay (P08588 whole entry): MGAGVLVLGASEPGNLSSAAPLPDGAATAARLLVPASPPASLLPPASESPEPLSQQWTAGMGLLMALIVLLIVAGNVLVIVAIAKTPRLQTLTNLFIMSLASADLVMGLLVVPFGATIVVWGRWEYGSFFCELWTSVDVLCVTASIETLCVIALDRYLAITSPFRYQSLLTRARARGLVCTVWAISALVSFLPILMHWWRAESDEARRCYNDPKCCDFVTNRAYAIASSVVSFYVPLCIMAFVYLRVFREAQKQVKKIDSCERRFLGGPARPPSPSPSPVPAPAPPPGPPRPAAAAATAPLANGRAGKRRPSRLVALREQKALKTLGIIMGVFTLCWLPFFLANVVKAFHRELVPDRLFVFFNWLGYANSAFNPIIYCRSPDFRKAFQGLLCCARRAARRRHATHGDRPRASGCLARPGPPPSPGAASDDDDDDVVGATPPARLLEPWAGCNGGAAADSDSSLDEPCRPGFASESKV

[4] = target: T1, Beta-3 adrenergic receptor
Description: Agonist activity at human adrenergic beta3 receptor expressed in CHOK1 cells assessed as cAMP accumulation by HTRF assay

[5] = target: T2, Beta-2 adrenergic receptor; assay: Antagonist activity at human adrenergic beta2 receptor expressed in CHOK1 cells assessed as inhibition of cAMP accumulation by HTRF assay; format: functional, cell-based, CHO-K1
[6] = target: T3, Beta-1 adrenergic receptor; assay: Agonist activity at human adrenergic beta-1 receptor expressed in CHOK1 cells assessed as cAMP accumulation by HTRF assay; format: functional, cell-based, CHO-K1
Target sequence in this assay (P08588 whole entry): as above

[7] = target: T3, Beta-1 adrenergic receptor; assay: Intrinsic activity at human adrenergic beta-1 receptor expressed in CHOK1 cells assessed as cAMP accumulation by HTRF assay relative to isoproterenol; format: functional, cell-based; conditions: CHO-K1
Target sequence in this assay (P08588 whole entry, looked up): as the sequence (P08588 whole entry) above

[8] = Solubility at pH 4; format: physicochemical; conditions: buffer
[9] = Half life in Wistar rat at 10 mg/kg, po; format: ADME, organism-based; set-up: dose 10 mg/kg, route oral; conditions: in vivo
[10] = Cmax in Wistar rat at 10 mg/kg, po; format: ADME, organism-based; set-up: dose 10 mg/kg, route oral; conditions: in vivo
[11] = Solubility at pH 6; format: physicochemical; conditions: buffer
[12] = Cytotoxicity against human HepG2 cells; format: cell-based; conditions: read-out: ED50 (the source's name)
[13] = Permeability by PAMPA method; format: ADME
[14] = Cytotoxicity against human PBMC cells; format: cell-based; conditions: read-out: ED50 (the source's name)
[15] = target: T1, Beta-3 adrenergic receptor; assay: Antagonist activity at human adrenergic beta3 receptor expressed in CHOK1 cells assessed as inhibition of cAMP accumulation by HTRF assay; format: functional, cell-based, CHO-K1
[16] = target: T3, Beta-1 adrenergic receptor; assay: Antagonist activity at human adrenergic beta-1 receptor expressed in CHOK1 cells assessed as inhibition of cAMP accumulation by HTRF assay; format: functional, cell-based, CHO-K1
Target sequence in this assay (P08588 whole entry): as above

T2 sequence (P07550 whole entry): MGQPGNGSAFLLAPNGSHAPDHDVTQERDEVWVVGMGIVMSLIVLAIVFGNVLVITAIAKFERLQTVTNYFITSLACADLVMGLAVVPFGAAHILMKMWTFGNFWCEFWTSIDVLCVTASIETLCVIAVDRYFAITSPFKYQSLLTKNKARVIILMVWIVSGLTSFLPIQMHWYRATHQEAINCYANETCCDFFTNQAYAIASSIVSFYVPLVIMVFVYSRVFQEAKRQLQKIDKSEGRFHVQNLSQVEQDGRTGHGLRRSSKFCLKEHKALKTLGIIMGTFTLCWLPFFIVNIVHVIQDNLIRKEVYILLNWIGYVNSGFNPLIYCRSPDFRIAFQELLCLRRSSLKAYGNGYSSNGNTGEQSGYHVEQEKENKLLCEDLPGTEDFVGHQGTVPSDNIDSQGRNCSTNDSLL
T1 sequence (P13945 whole entry): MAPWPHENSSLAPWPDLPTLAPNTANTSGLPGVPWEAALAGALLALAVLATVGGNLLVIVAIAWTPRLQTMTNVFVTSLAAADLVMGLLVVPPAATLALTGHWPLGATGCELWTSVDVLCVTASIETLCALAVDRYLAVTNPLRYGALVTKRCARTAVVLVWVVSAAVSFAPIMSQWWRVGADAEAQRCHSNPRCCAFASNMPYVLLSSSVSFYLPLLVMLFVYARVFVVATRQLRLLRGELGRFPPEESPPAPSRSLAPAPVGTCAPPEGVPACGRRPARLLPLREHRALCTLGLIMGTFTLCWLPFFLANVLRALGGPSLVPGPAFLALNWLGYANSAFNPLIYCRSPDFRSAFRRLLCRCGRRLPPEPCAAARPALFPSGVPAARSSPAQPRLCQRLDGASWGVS

Row | SMILES | Ki [1] [nM] | Ki [2] [nM] | Ki ([3]; read-out: Ki) [nM] | other results
1 | COc1ccc(OCC(O)CN2CCC(CN3C(=O)c4cccc5cccc(c45)C3=O)CC2)c(C(C)(C)C)c1 (configuration not stated) | 3380 | 300 | 530 | 
2 | O=C(c1ccccc1)C1CCN(CC(O)COc2cccc3[nH]c4ccccc4c23)CC1 (configuration not stated) | 230 | 0.2 | 16 | 
3 | CC(C)c1ccccc1OCC(O)CN1CCC(CN2C(=O)CCCC2=O)CC1 (configuration not stated) | 2900 | 9 | 245 | 
4 | COc1ccc(C(=O)C2CCN(CC(O)COc3cccc4[nH]c5ccccc5c34)CC2)cc1 (configuration not stated) | 9180 | 0.2 | 13 | 
5 | CC(C)c1ccccc1OCC(O)CN1CCC(CN2C(=O)c3cccc4cccc(c34)C2=O)CC1 (configuration not stated) | 1030 | 230 | 250 | 
6 | O=C1c2cccc3cc(O)cc(c23)C(=O)N1CC1CCN(CC(O)COc2cccc3[nH]c4ccccc4c23)CC1 (configuration not stated) | 590 | 37 | 250 | EC50 [4]: 234 nM; IC50 [5]: 120 nM; EC50 [6]: 80 nM; Intrinsic activity [7]: 40%
7 | O=C(c1ccc(F)cc1)C1CCN(CC(O)COc2cccc3[nH]c4ccccc4c23)CC1 (configuration not stated) | 250 | 0.3 | 32 | EC50 [4]: 385 nM; solubility [8]: 180 µM (≈ 80.4 µg/mL); half-life [9]: 7.5 h; Cmax [10]: 290 nM; solubility [11]: 10 µM (≈ 4.47 µg/mL); CC50 [12]: 19000 nM; IC50 [5]: 32 nM; Activity [13]: Active; EC50 [6]: 310 nM; CC50 [14]: 9000 nM; Intrinsic activity [7]: 20%
8 | CC(C)c1ccccc1OCC(O)CN1CCN(CCN2C(=O)c3cccc4cccc(c34)C2=O)CC1 (configuration not stated) | 1480 | 70 | 740 | 
9 | CC(C)c1ccccc1OCC(O)CN1CCC(N2C(=O)c3cccc4cccc(c34)C2=O)CC1 (configuration not stated) | 3820 | 13 | 240 | 
10 | OC(COc1cccc2[nH]c3ccccc3c12)CN1CCC(Cc2cccnc2)CC1 (configuration not stated) | 72 | 0.1 | 1 | 
11 | COc1cc2c3c(cccc3c1)C(=O)N(CC1CCN(CC(O)COc3ccccc3C(C)C)CC1)C2=O (configuration not stated) | 698 | 38 | 209 | 
12 | C=CCc1ccccc1OCC(O)CN1CCC(CN2C(=O)c3ccccc3C2=O)CC1 (configuration not stated) | 3400 | 50 | 190 | 
13 | COc1ccc(OCC(O)CNC2CCN(c3ncnc4scc(-c5ccccc5)c34)CC2)cc1 (configuration not stated) |  |  | > 10000 | 
14 | C=CCc1ccccc1OCC(O)CN1CCC(CN2C(=O)c3cccc4cc(OC)cc(c34)C2=O)CC1 (configuration not stated) | 1510 | 78 | 300 | 
15 | CC(C)c1ccccc1OCC(O)CNC1CCN(C)CC1 (configuration not stated) | 1060 | 17 | 89 | 
16 | C=CCc1ccccc1OCC(O)CN1CCC(CN2C(=O)c3cccc4cc(O)cc(c34)C2=O)CC1 (configuration not stated) | 2200 | 135 | 170 | 
17 | CC(C)c1ccccc1OCC(O)CN1CCOCC1 (configuration not stated) | 1770 | 1.2 | 12 | 

Row | SMILES | Ki [1] [nM] | Ki [2] [nM] | Ki ([3]; read-out: Ki) [nM] | other results
18 | O=C1c2cccc3cccc(c23)C(=O)N1CC1CCN(CC(O)COc2ccc3[nH]ccc3c2)CC1 (configuration not stated) | 8500 | 1260 | 4530 | 
19 | O=C1c2cccc3cccc(c23)C(=O)N1C1CCN(CC(O)COc2cccc3[nH]c4ccccc4c23)CC1 (configuration not stated) | 98 | 57 | 76 | 
20 | CC(C)c1ccccc1OCC(O)CN1CCC(CN2C(=O)c3ccccc3C2=O)CC1 (configuration not stated) | 1480 | 17 | 720 | 
21 | O=C1c2cccc3cccc(c23)C(=O)N1CC1CCN(CC(O)COc2cccc3[nH]c4ccccc4c23)CC1 (configuration not stated) | 225 | 3 | 7 | 
22 | C=CCc1ccccc1OCC(O)CN1CCC(CN2C(=O)c3cccc4cccc(c34)C2=O)CC1 (configuration not stated) | 409 |  | 80 | EC50 [4]: 2400 nM
23 | C=CCc1ccccc1OCC(O)CNC1CCN(C)CC1 (configuration not stated) | 6220 | 2.4 | 260 | 
24 | Cc1ccc(C(C)C)c(OCC(O)CN2CCN(CCN3C(=O)c4cccc5cccc(c45)C3=O)CC2)c1 (configuration not stated) | > 10000 | 110 |  | Ki ([3]; cho-k1): Not Active
25 | C=CCc1ccc(OCC(O)CN2CCC(CN3C(=O)c4cccc5cccc(c45)C3=O)CC2)c(OC)c1 (configuration not stated) | 3290 | 3290 | 1360 | 
26 | COc1cc2c3c(cccc3c1)C(=O)N(CC1CCN(CC(O)COc3cccc4[nH]c5ccccc5c34)CC1)C2=O (configuration not stated) | 410 | 8 | 0.1 | 
27 | OC(COc1cccc2[nH]c3ccccc3c12)CN1CCC(Cc2ccccc2)CC1 (configuration not stated) | 230 | 0.5 | 14 | 
28 | C=CCc1ccccc1OCC(O)CN1CCOCC1 (configuration not stated) | 4960 | 7 | 114 | 
29 | Cc1ccc(C(C)C)c(OCC(O)CN2CCC(CN3C(=O)c4cccc5cccc(c45)C3=O)CC2)c1 (configuration not stated) | 411 | 80 | 1000 | IC50 [15]: 1470 nM; IC50 [16]: 1380 nM
30 | COc1ccc(CC2CCN(CC(O)COc3cccc4[nH]c5ccccc5c34)CC2)cc1 (configuration not stated) | 455 | 0.2 | 3.4 | 
31 | C=CCc1ccccc1OCC(O)CN1CCC(N2C(=O)c3cccc4cccc(c34)C2=O)CC1 (configuration not stated) | 2340 | 40 | 1050 | 
32 | C=CCc1ccccc1OCC(O)CN1CCN(CCN2C(=O)c3cccc4cccc(c34)C2=O)CC1 (configuration not stated) | 3100 | 150 | 293 | 
33 | C=CCc1ccccc1OCC(O)CN1CCC(CN2C(=O)CCCC2=O)CC1 (configuration not stated) | 11000 | 80 | 440 | 
34 | O=C1c2cccc3cccc(c23)C(=O)N1CC1CCN(CC(O)COc2cccc3[nH]ccc23)CC1 (configuration not stated) | 1000 | 120 | 27 | 
